The assay has as its system P388 leukemia ip, CD2F1 mice, survival T/C. Kind of assay: NCI In Vivo Anticancer Drug Screen. Data for tumor model P388 Leukemia (intraperitoneal) in CD2F1 (CDF1) mice. The note with it: endpoint: median survival time, higher = longer survival. A digest of the protocol:
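Mice carrying the transplanted tumor received test compound or vehicle. Survival was recorded in each group, and the value is the treated-group measurement divided by that of the vehicle-treated control group.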

[1] abbreviates: dose: 100.0 mg/kg/injection, schedule: Q01DX009 (ip), vehicle: saline with Tween-80.
Where [2] appears, read: dose: 200.0 mg/kg/injection, schedule: Q01DX009 (ip), vehicle: saline with Tween-80.
Setting [3] is: dose: 50.0 mg/kg/injection, schedule: Q01DX009 (ip), vehicle: saline.
Where [4] appears, read: dose: 100.0 mg/kg/injection, schedule: Q01DX009 (ip), vehicle: saline.
Where [5] appears, read: dose: 200.0 mg/kg/injection, schedule: Q01DX009 (ip), vehicle: saline.
Setting [6] is: dose: 25.0 mg/kg/injection, schedule: Q04DX003 (ip), vehicle: saline with Tween-80.
Setting [7] is: dose: 60.0 mg/kg/injection, schedule: Q01DX005 (ip), vehicle: saline.
[8] abbreviates: dose: 120.0 mg/kg/injection, schedule: Q01DX005 (ip), vehicle: saline.
Where [9] appears, read: dose: 240.0 mg/kg/injection, schedule: Q01DX005 (ip), vehicle: saline.
Where [10] appears, read: dose: 50.0 mg/kg/injection, schedule: Q01DX005 (ip), vehicle: saline with Tween-80.
Setting [11] is: dose: 200.0 mg/kg/injection, schedule: Q01DX005 (ip), vehicle: saline with Tween-80.
The mark [12] stands for this setting: dose: 100.0 mg/kg/injection, schedule: Q01DX005 (ip), vehicle: saline with Tween-80.
Where [13] appears, read: dose: 50.0 mg/kg/injection, schedule: Q01DX005 (ip), vehicle: Klucel (hydroxypropylcellulose) (HPC).
Setting [14] is: dose: 100.0 mg/kg/injection, schedule: Q01DX005 (ip), vehicle: Klucel (hydroxypropylcellulose) (HPC).
Setting [15] is: dose: 60.0 mg/kg/injection, schedule: Q01DX005 (ip), vehicle: Klucel (hydroxypropylcellulose) (HPC).
Setting [16] is: dose: 120.0 mg/kg/injection, schedule: Q01DX005 (ip), vehicle: Klucel (hydroxypropylcellulose) (HPC).
The mark [17] stands for this setting: dose: 240.0 mg/kg/injection, schedule: Q01DX005 (ip), vehicle: Klucel (hydroxypropylcellulose) (HPC).
[18] abbreviates: dose: 50.0 mg/kg/injection, schedule: Q01DX009 (ip), vehicle: saline with Tween-80.

Molecules are shown by their SMILES. Several values for one entry are separate records, joined by “and”; a condition that tells them apart may be missing. Equal entries are not always repeated. Inconclusive results and toxic doses are left out.

`Cc1ccc(S(=O)(=O)O/N=C2/CCC(C)(C)c3ccccc32)cc1`: the T/C under setting [1] was 90 % of control; the T/C under setting [2] is 100 % of control; the T/C (dose: 400.0 mg/kg/injection, schedule: Q01DX009 (ip), vehicle: saline with Tween-80) was 90 % of control.

Consider `CC(C)(C)OC(=O)NC(CC(=O)O)C(=O)O` (configuration not stated), for which the T/C is, setting by setting: under setting [3], 111 % of control; under setting [4], 93 % of control; under setting [5], 104 % of control.

On to `O=[N+]([O-])c1nncs1`, for which the T/C reads like this: (dose: 6.25 mg/kg/injection, schedule: Q04DX003 (ip), vehicle: saline with Tween-80) 105 % of control; (dose: 12.5 mg/kg/injection, schedule: Q04DX003 (ip), vehicle: saline with Tween-80) 100 % of control; under setting [6], 110 % of control.

`C/C(C/C(C)=N/C(N)=S)=N\C(N)=S`: the T/C is 100 % of control under setting [7], 95 % of control under setting [8] and 100 % of control under setting [9].

`CCOC(=O)c1c(-c2ccccc2)csc1NC(=O)CN1CCOCC1`: the T/C is 98 % of control (dose: 12.5 mg/kg/injection, schedule: Q01DX005 (ip), vehicle: saline with Tween-80); 90 % of control (dose: 25.0 mg/kg/injection, schedule: Q01DX005 (ip), vehicle: saline with Tween-80); 86 % of control under setting [10]; 88 % of control under setting [11].

Take `Cc1cc(C(=O)O)nn1-c1ccc(S(=O)(=O)N2CCC(=O)N(C3CCCCC3)C2=S)cc1`: the T/C is, setting by setting: under setting [10], 95 % of control; under setting [12], 101 % of control; under setting [11], 101 % of control.

Regarding `CC(C)c1ccc2c(c1)CCC1C(C)(CN)CCCC21C` (configuration not stated), the T/C runs as follows: under setting [13], 97 % of control; under setting [14], 99 % of control.

Regarding `COC1=C(c2c[nH]c3ccc(CC=C(C)C)cc23)C(=O)C(OC)=C(c2c[nH]c3ccc(CC=C(C)C)cc23)C1=O`, the T/C reads like this: under setting [10], 89 % of control; under setting [12], 89 % of control; under setting [11], 94 % of control.

Consider `CSC(=N)c1cccc(OCCOc2ccccc2)c1`, for which the T/C is, setting by setting: (dose: 15.0 mg/kg/injection, schedule: Q01DX005 (ip), vehicle: Klucel (hydroxypropylcellulose) (HPC)) 96 % of control; (dose: 30.0 mg/kg/injection, schedule: Q01DX005 (ip), vehicle: Klucel (hydroxypropylcellulose) (HPC)) 98 % of control; under setting [15], 91 % of control; (dose: 60.0 mg/kg/injection, schedule: Q01DX005 (ip), vehicle: saline with Tween-80) 93 % of control; under setting [16], 86 % of control; (dose: 120.0 mg/kg/injection, schedule: Q01DX005 (ip), vehicle: saline with Tween-80) 101 % of control. For the same compound, the T/C under setting [17] is 91 % of control and the T/C (dose: 240.0 mg/kg/injection, schedule: Q01DX005 (ip), vehicle: saline with Tween-80) is 99 % of control.

Turning to `Nc1nc(C2CCCCC2)cc(=O)[nH]1`, the T/C is 87 % of control under setting [13]; 97 % of control under setting [14]; 97 % of control (dose: 200.0 mg/kg/injection, schedule: Q01DX005 (ip), vehicle: Klucel (hydroxypropylcellulose) (HPC)).

With `COC1C=C(Cl)C(=O)C(C)O1` (configuration not stated), the T/C is 100 % of control (dose: 25.0 mg/kg/injection, schedule: Q04DX003 (ip), vehicle: Klucel (hydroxypropylcellulose) (HPC)); 106 % of control (dose: 50.0 mg/kg/injection, schedule: Q04DX003 (ip), vehicle: Klucel (hydroxypropylcellulose) (HPC)); 100 % of control (dose: 100.0 mg/kg/injection, schedule: Q04DX003 (ip), vehicle: Klucel (hydroxypropylcellulose) (HPC)).

In the case of `Nc1noc(N)n1`, the T/C by setting is: (dose: 50.0 mg/kg/injection, schedule: Q01DX005 (ip), vehicle: saline) 107 % of control; (dose: 100.0 mg/kg/injection, schedule: Q01DX005 (ip), vehicle: saline) 110 % of control; (dose: 200.0 mg/kg/injection, schedule: Q01DX005 (ip), vehicle: saline) 124 % of control.

`Cc1ncc([N+](=O)[O-])n1CCOC(=O)c1ccc(F)cc1`: the T/C by setting is: under setting [18], 99 % of control; under setting [1], 92 % of control; under setting [2], 97 % of control.

Turning to `C#CC1(NC(=O)c2ccccc2C(=O)Nc2cccc(C(F)(F)F)c2)CCCCC1`, the T/C is 97 % of control under setting [18], 89 % of control under setting [1] and 89 % of control under setting [2].

For the compound `CN(N=O)C(=O)NCC1OC(OC2(CO)OC(CNC(=O)N(C)N=O)C(O)C2O)C(O)C(O)C1O` (configuration not stated), the T/C runs as follows: under setting [3], 103 % of control and 109 % of control and 120 % of control; under setting [4], 112 % of control and 120 % of control; under setting [5], 104 % of control.

In the case of `C1CN(P2(N3CC3)=NP(N3CC3)(N3CC3)=NP(N3CC3)(N3CC3)=N2)CCO1` (configuration not stated), the T/C (dose: 3.13 mg/kg/injection, schedule: Q01DX009 (ip), vehicle: saline) is 123 % of control; the T/C (dose: 4.0 mg/kg/injection, schedule: Q01DX009 (ip), vehicle: saline) is 161 % of control; the T/C (dose: 6.25 mg/kg/injection, schedule: Q01DX009 (ip), vehicle: saline) is 157 % of control; the T/C (dose: 8.0 mg/kg/injection, schedule: Q01DX009 (ip), vehicle: saline) is 212 % of control; the T/C (dose: 12.5 mg/kg/injection, schedule: Q01DX009 (ip), vehicle: saline) is 183 % of control; the T/C (dose: 16.0 mg/kg/injection, schedule: Q01DX009 (ip), vehicle: saline) was 174 % of control. The T/C was 215 % of control (dose: 25.0 mg/kg/injection, schedule: Q01DX009 (ip), vehicle: saline); 235 % of control (dose: 32.0 mg/kg/injection, schedule: Q01DX009 (ip), vehicle: saline); 104 % of control under setting [3]; 108 % of control (dose: 64.0 mg/kg/injection, schedule: Q01DX009 (ip), vehicle: saline); 86 % of control under setting [4].

For the compound `Nc1nc(N)c2cc(S(=O)(=O)c3nc(-c4ccccc4)cs3)ccc2n1`, the T/C was 98 % of control under setting [15], 98 % of control under setting [16] and 105 % of control under setting [17].

`O=C(O)C(=O)O.OO.OO.[O]=[V]`: the T/C (dose: 0.94 mg/kg/injection, schedule: Q01DX005 (ip), vehicle: saline) was 92 % of control and the T/C (dose: 3.75 mg/kg/injection, schedule: Q01DX005 (ip), vehicle: saline) is 110 % of control.

For the compound `CNc1c([N+](=O)[O-])cc2[nH]cnc2c1[N+](=O)[O-]`, the T/C is, setting by setting: under setting [6], 97 % of control; (dose: 50.0 mg/kg/injection, schedule: Q04DX003 (ip), vehicle: saline with Tween-80) 95 % of control.

For `CCn1c(Cl)c(/C=N/Nc2ccccc2[N+](=O)[O-])c2cccc(/C=N\Nc3ccccc3[N+](=O)[O-])c21`, the T/C was 91 % of control (dose: 100.0 mg/kg/injection, schedule: Q01DX001 (ip), vehicle: Klucel (hydroxypropylcellulose) (HPC)); 90 % of control (dose: 200.0 mg/kg/injection, schedule: Q01DX001 (ip), vehicle: Klucel (hydroxypropylcellulose) (HPC)); 87 % of control (dose: 400.0 mg/kg/injection, schedule: Q01DX001 (ip), vehicle: Klucel (hydroxypropylcellulose) (HPC)).

In the case of `CCCC1OCC(O)C(C(O)C(=O)CN(Cc2ccccc2)Cc2ccccc2)O1` (configuration not stated), the T/C is, setting by setting: under setting [10], 100 % of control; under setting [12], 98 % of control; under setting [11], 98 % of control.

`CCN(CC)C(C)(C)C(=O)/C=C/c1ccc(Cl)c(Cl)c1`: the T/C is 102 % of control under setting [7], 101 % of control under setting [8] and 100 % of control under setting [9].

For `Nc1nc(N)nc(CCC(Cl)(Cl)Cl)n1`, the T/C was 100 % of control (dose: 12.5 mg/kg/injection, schedule: Q01DX009 (ip), vehicle: distilled water + Tween-80); 100 % of control (dose: 25.0 mg/kg/injection, schedule: Q01DX009 (ip), vehicle: distilled water + Tween-80); 95 % of control (dose: 50.0 mg/kg/injection, schedule: Q01DX009 (ip), vehicle: distilled water + Tween-80); 95 % of control (dose: 100.0 mg/kg/injection, schedule: Q01DX009 (ip), vehicle: distilled water + Tween-80); 100 % of control (dose: 200.0 mg/kg/injection, schedule: Q01DX009 (ip), vehicle: distilled water + Tween-80).

For the origin of these results see PubChem BioAssay AID330 (DTP/NCI, 2004).
